Laboratory results taken from paper PMC6273584, “Synthesis of Thiazolo[5,4-f]quinazolin-9(8H)-ones as Multi-Target Directed Ligands of Ser/Thr Kinases” (Molecules, 2016).
pIC50: −log10 of the molar value. Like-named read-outs stand apart in the source and are kept apart here.

Key:
CDK5/p25 = molecular target: T1, CDK5/p25 (Homo sapiens, UniProt Q00535); experiment: In vitro kinase assay CDK5/p25, [γ-33P]ATP, histone H1 substrate; assay type: biochemical
T1 construct: made in house
Method: (§1) It was also tested as positive control and its IC50 values were compared to those obtained for the compounds under study.
(§2) Buffer A: MgCl2 (10 mM), 1 mM ethylene glycol-bis(2-aminoethylether)-N,N,N’,N’- tetraacetic acid (EGTA), 1 mM dithiothreitol (DTT), 25 mM Tris-HCl pH 7.5, 50 μg heparin/mL. Buffer B: β-Glycerophosphate (60 mM), 30 mM p-nitrophenylphosphate, 25 mM 3-(N-morpholino) propanesulfonic acid (Mops) (pH 7.2), 5 mM EGTA, 15 mM MgCl2, 1 mM DTT, 0.1 mM sodium vanadate.
(§3) Blank values were substracted and activities expressed in % of the maximal activity, i.e., in the absence of inhibitors. Controls were performed with appropriate dilutions of dimethylsulfoxide (DMSO). IC50 values were calculated from dose-response curves established by Sigma-Plot graphs. The GSK-3, CK1, DYRK1A and CLK1 peptide substrates were obtained from Proteogenix (Oberhausbergen, France).
(§4) CDK5/p25. (Human, recombinant) was prepared as previously described. […] ATP (3000 Ci/mmol; 10 mCi/mL) in a final volume of 30 μL. After 30 min incubation at 30 °C, 25 μL aliquots of supernatant were spotted onto sheets of P81 phosphocellulose paper (Whatman) and 20 s later, the filters were washed eight times (for at least 5 min each time) in a solution of 10 mL phosphoric acid/L of water. The wet filters were counted in the presence of 1 mL ACS (Amersham, UK) scintillation fluid.

CK1δ/ε = experiment: In vitro kinase assay CK1δ/ε, CK1-specific peptide substrate; assay type: biochemical, Porcine
Method: as §1, §2, §3, §4
CK1δ/ε. (Porcine brain, native) was assayed as described for CDK5/p25 but using the CK1-specific peptide substrate […]pSAYSITA [37].

DYRK1A = DYRK1A (Rattus norvegicus, UniProt Q63470); experiment: In vitro kinase assay DYRK1A, Woodtide substrate; assay type: biochemical
Method: as §1, §2, §3, §4

GSK-3α/β = experiment: In vitro kinase assay GSK-3α/β, GS-1 peptide substrate; assay type: biochemical, Porcine
Method: as §1, §2, §3, §4
GSK-3α/β. (Porcine brain, native) was assayed, as described for CDK5/p25 but in buffer A and using a GSK-3 specific substrate (GS-1: […]pSEDEEE) (pS stands for phosphorylated serine).

CLK1 = CLK1 (Homo sapiens, UniProt P49759); experiment: biochemical
CLK1, sequence (P49759 whole entry): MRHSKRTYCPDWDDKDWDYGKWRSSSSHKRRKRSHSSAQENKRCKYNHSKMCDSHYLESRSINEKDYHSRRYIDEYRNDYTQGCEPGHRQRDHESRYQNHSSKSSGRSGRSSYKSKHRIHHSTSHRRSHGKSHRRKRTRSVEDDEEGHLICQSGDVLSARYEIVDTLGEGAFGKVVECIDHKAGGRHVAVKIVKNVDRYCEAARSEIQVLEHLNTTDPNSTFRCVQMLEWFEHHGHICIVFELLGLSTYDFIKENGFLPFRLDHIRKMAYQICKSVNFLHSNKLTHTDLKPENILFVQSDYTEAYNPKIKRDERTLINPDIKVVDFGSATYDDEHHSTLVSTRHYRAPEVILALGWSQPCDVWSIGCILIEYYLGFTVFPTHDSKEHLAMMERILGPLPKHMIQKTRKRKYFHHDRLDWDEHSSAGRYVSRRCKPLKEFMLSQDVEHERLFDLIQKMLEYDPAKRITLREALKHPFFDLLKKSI

[1] = 15 μM ATP, 30 min, 30 °C, triplicate, <50% inhibition at 10 μM = IC50 >10 μM

T1 sequence (Q00535 whole entry): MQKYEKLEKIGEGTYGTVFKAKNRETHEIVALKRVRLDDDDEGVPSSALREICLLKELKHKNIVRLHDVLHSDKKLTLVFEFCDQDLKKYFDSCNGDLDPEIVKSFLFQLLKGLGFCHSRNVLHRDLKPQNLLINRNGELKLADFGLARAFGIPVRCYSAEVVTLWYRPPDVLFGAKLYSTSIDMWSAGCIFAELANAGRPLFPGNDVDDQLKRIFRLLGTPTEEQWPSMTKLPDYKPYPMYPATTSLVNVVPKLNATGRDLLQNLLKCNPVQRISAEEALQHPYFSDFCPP
T1 sequence (Q15078 99-307 partner limits assumed): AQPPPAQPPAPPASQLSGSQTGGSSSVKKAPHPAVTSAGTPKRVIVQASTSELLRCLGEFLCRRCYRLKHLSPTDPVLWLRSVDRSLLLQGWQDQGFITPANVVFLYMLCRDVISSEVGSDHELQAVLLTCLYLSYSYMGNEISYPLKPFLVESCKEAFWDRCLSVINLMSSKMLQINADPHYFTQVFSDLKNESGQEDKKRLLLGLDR

SMILES	pIC50 (CDK5/p25)	pIC50 (CK1δ/ε; [1])	pIC50 (DYRK1A)	pIC50 (GSK-3α/β)	pIC50 (CLK1)	pIC50 (CK1δ/ε)	pIC50 (GSK-3α/β; [1])	pIC50 (DYRK1A; read-out: DYRK1A IC50)
COC(=N)c1nc2ccc3ncn(-c4ccc(OC)cc4)c(=O)c3c2s1 [Compound 12l, Methyl 8-(4-methoxyphenyl)-9-oxo-8,9-dihydrothiazolo[5,4-f]quinazoline-2-carbimidate]	< 5.00	< 5.00	5.52	5.92	5.10	–	–	–
COCCCn1cnc2ccc3nc(C#N)sc3c2c1=O [Compound 11c, 8-(3-Methoxypropyl)-9-oxo-8,9-dihydrothiazolo[5,4-f]quinazoline-2-carbonitrile]	< 5.00	< 5.00	5.11	5.92	5.89	–	–	–
COc1ccc2c(c1)[nH]c1c(C)nccc12 [Harmine, reference compound]	–	–	–	–	–	5.82	< 5.00	–
COCCn1cnc2ccc3nc(C(=N)OCc4ccccc4)sc3c2c1=O [Compound 13b, Benzyl 8-(2-methoxyethyl)-9-oxo-8,9-dihydrothiazolo[5,4-f]quinazoline-2-carbimidate]	< 5.00	< 5.00	6.54	6.16	6.23	–	–	–
COC(=N)c1nc2ccc3ncn(C4CC4)c(=O)c3c2s1 [Compound 12a, Methyl 8-cyclopropyl-9-oxo-8,9-dihydrothiazolo[5,4-f]quinazoline-2-carbimidate]	5.41	< 5.00	–	7.09	7.51	–	–	7.04
COC(=N)c1nc2ccc3ncn(-c4ccc(N(C)C)cc4)c(=O)c3c2s1 [Compound 12m, Methyl 8-(4-dimethylaminophenyl)-9-oxo-8,9-dihydrothiazolo[5,4-f]quinazoline-2-carbimidate]	< 5.00	< 5.00	< 5.00	–	< 5.00	–	< 5.00	–
CCOC(=N)c1nc2ccc3ncn(C4CCCC4)c(=O)c3c2s1 [Compound 14e, Ethyl 8-cyclopentyl-9-oxo-8,9-dihydrothiazolo[5,4-f]quinazoline-2-carbimidate]	< 5.00	< 5.00	6.64	7.54	6.11	–	–	–
COC(=N)c1nc2ccc3ncn(N(C)C)c(=O)c3c2s1 [Compound 12h, Methyl 8-dimethylamino-9-oxo-8,9-dihydrothiazolo[5,4-f]quinazoline-2-carbimidate]	< 5.00	< 5.00	–	6.52	6.00	–	–	6.30
CCOC(=N)c1nc2ccc3ncn(C4CC4)c(=O)c3c2s1 [Compound 14a, Ethyl 8-cyclopropyl-9-oxo-8,9-dihydrothiazolo[5,4-f]quinazoline-2-carbimidate]	< 5.00	< 5.00	6.68	6.70	7.00	–	–	–
COC(=N)c1nc2ccc3ncn(C4CCCC4)c(=O)c3c2s1 [Compound 12e, Methyl 8-cyclopentyl-9-oxo-8,9-dihydrothiazolo[5,4-f]quinazoline-2-carbimidate]	5.31	< 5.00	7.14	7.55	6.54	–	–	–
COCCCn1cnc2ccc3nc(C(=N)OC)sc3c2c1=O [Compound 12c, Methyl 8-(3-methoxypropyl)-9-oxo-8,9-dihydrothiazolo[5,4-f]quinazoline-2-carbimidate]	< 5.00	< 5.00	6.49	6.92	6.68	–	–	–
CCOC(=N)c1nc2ccc3ncn(CCOC)c(=O)c3c2s1 [Compound 14b, Ethyl 8-(2-methoxyethyl)-9-oxo-8,9-dihydrothiazolo[5,4-f]quinazoline-2-carboximidoate]	< 5.00	< 5.00	6.09	5.92	5.72	–	–	–
CCOC(=N)c1nc2ccc3ncn(C(C)C)c(=O)c3c2s1 [Compound 14d, Ethyl 8-isopropyl-9-oxo-8,9-dihydrothiazolo[5,4-f]quinazoline-2-carboximidoate]	< 5.00	< 5.00	6.43	–	6.47	–	–	–
